# From patent US20090312423A1, “THERAPEUTIC TREATMENT FOR LUNG CONDITIONS” (Vanderbilt University, priority 2008, published 2009)
# What was measured:
# exhaled NO = experiment: Exhaled nitric oxide measurement in anesthetized piglets; assay type: in vivo; settings: FIG. 5; p-value 0.032; not different from control (p=0.124)
# Procedure: In vivo hemodynamics were measured in 6 of the control piglets and all of the hypoxic piglets. For these measurements, the animals were weighed and then preanesthetized with Ketamine (15 mg/kg) and Acepromazine (2 mg/kg) intramuscularly. A tracheostomy, venous and arterial catheters, and thermistor were then placed as previously described using intravenous pentobarbital for sedation. Fike, C. D. et al., J Appl Physiol (2000) 88:1797-1803. Pulmonary artery pressure, left ventricular end diastolic pressure, and cardiac output were measured. Cardiac output was measured by a thermodilution technique (model 9520 thermodilution cardiac output computer, Edwards Laboratory, Irvine, Calif., United States of America) using a thermistor in the aortic arch and the left ventricle catheter as an injection port. Cardiac output was measured at end expiration as the mean of three injections of 3 ml of normal saline (0° C.). Exhaled NO was measured as described below. […]
# For exhaled NO measurement in anesthetized animals, expiratory gas was sampled two to three times for 3 minute periods each and passed through a chemiluminescence analyzer (model 270B NOA; Sievers, Boulder, Colo., United States of America) to measure NO concentration as previously described. […] Exhaled NO production (nmol/min) was calculated using minute ventilation and the measured exhaled NO concentration.
# nitrite/nitrate (NOx-) = experiment: Isolated lung perfusion, perfusate NOx- measurement; assay type: in vivo, piglets; settings: FIG. 6; p=0.04; no difference from normoxic controls
# Procedure: The lungs were isolated and perfused in situ with a Krebs Ringer bicarbonate (KRB) solution containing 5% dextran, mol. wt. 70,000, at 37° C. and ventilated with a normoxic gas mixture (21% O2 and 5% CO2) as previously described. Fike, C. D. et al., J Appl Physiol (2000) 88:1797-1803. The lungs were perfused for 30-60 min until a stable pulmonary arterial pressure was achieved. Perfusate samples (1 ml) were then removed from the left atrial cannula every 10 min for a 60-minute period. The perfusate samples were centrifuged, and the supernatant was stored at −80° C. for future analysis of nitrite/nitrate (NOx^−) concentrations as described below. At the end of the perfusion, the volume of perfusate remaining in the circuit and reservoir was measured. […]
# The perfusate NOx^− […] was calculated for each collection time by multiplying the perfusate concentration of NOx^− at that sample collection time by the volume of the system (perfusion circuit+reservoir) at the sample collection time plus the amount of NOx^− removed with all previous samples. The rate of NOx^− production was determined from the slope of a linear regression line fit to the amount of NOx^− in the perfusate versus time for the first 60 minutes of the collection period.
# [1] = test system: chronically hypoxic piglets; experiment: In vivo hemodynamics in newborn piglets exposed to 10 days of chronic hypoxia
# Excerpt: A total of 17 hypoxic and 17 control piglets were studied. Control animals were studied on the day of arrival from the farm at 12 days of age. The hypoxic pigs (2 days old) were placed in a normobaric hypoxic chamber for 10 to 11 days. Normobaric hypoxia was provided using compressed air and nitrogen to create inspired oxygen of 8-11% (PO2 60-72 Torr) and CO2 was maintained at 3-6 Torr by absorption with soda lime. The animals were monitored with daily weights and physical exam twice daily. They were fed ad lib with sow milk replacer from a feeding device in the cage.
# Six of the seventeen hypoxic piglets were supplemented with oral L-citrulline starting on the first day of the hypoxic exposure. L-citrulline supplementation was provided at a dose of 0.13-gm/kilogram body weight twice a day using a syringe to deliver the dose orally. If it appeared to study personnel that the piglet had not ingested the majority of a dose, it was repeated. L-citrulline was mixed using a preparation (Sigma Pharmaceuticals, St. Louis, Mo., United States of America, 98% purity) at a concentration of 0.13 grams per milliliter of distilled water and when completely dissolved passing this solution through a 0.20 Micron filter.
# In vivo hemodynamics were measured in 6 of the control piglets and all of the hypoxic piglets. […] Pulmonary artery pressure, left ventricular end diastolic pressure, and cardiac output were measured. Cardiac output was measured by a thermodilution technique (model 9520 thermodilution cardiac output computer, Edwards Laboratory, Irvine, Calif., United States of America) using a thermistor in the aortic arch and the left ventricle catheter as an injection port. Cardiac output was measured at end expiration as the mean of three injections of 3 ml of normal saline (0° C.). Exhaled NO was measured as described below. […]
# Pulmonary vascular resistance was calculated from the in vivo hemodynamic measurements: (Pulmonary arterial pressure−left ventricular end diastolic pressure)÷(Cardiac output/body weight). […]
# [2] = Plasma amino acid measurements; assay type: in vivo, piglets; settings: for Plasma Citrulline: mean ± SEM
# Procedure: On the day of hemodynamic measurements and/or lung perfusion study, for control and both L-citrulline treated and untreated chronic hypoxic animals, blood was drawn prior to starting the study and the plasma frozen at -80 degrees for later determination of amino acid levels. For the L-citrulline treated hypoxic animals, the time of obtaining the blood sample was approximately 12 hours after the last dose of L-citrulline so was a trough level. In some of the L-citrulline treated animals (n=3), after blood sampling for a trough level, a dose of L-citrulline was given via nasogastric tube. Following this dose, blood samples were drawn every 30 minutes for 90 minutes (the length of the in vivo studies). All samples were spun, the plasma collected and frozen at -80 degrees for amino acid analysis. Concentrations of plasma citrulline and arginine were determined by amino-acid analysis on protein-free extracts. Amino acids were separated by cation-exchange chromatography using a Hitachi […] amino acid analyzer (Hitachi USA, San Jose, Calif., United States of America). Calibration of the analyzer was performed before testing of piglet samples.
structure (smiles),measurement,setting,value
NC(=O)NCCC[C@H](N)C(=O)O [L-citrulline],exhaled NO output vs untreated hypoxic animals,exhaled NO,higher
same,NOx- accumulation rate in lung perfusate vs untreated hypoxic animals,nitrite/nitrate (NOx-),significantly higher
same,pulmonary artery pressure vs untreated hypoxic animals,"[1]; FIG. 3, p-value of 0.01, not different from normoxic controls (p=0.08)",significantly lower
same,calculated pulmonary vascular resistance,"[1]; FIG. 4, L-citrulline treated hypoxic animals, significantly lower than untreated hypoxic (p-value of 0.001)",0.071±0.003
same,development of pulmonary hypertension,"[1]; newborn piglets exposed to 10 days of chronic hypoxia, oral supplementation",ameliorates the development of pulmonary hypertension
same,Plasma Citrulline,"[2]; 90 minutes after administration of L-citrulline dose, N = 3",219 ± 36
same,plasma L-citrulline level relative to untreated chronic hypoxic animals,"[2]; ninety minutes after a dose, p=0.001",almost twice
same,plasma arginine levels vs untreated hypoxic animals,[2]; regardless of the time the sample was drawn,not higher
same,Plasma Citrulline,"[2]; trough, approximately twelve hours after L-citrulline dose, N = 6",161 ± 5
